Earlier results in US8338628B2, “Method of synthesizing alkylated bile acid derivatives” (City of Hope, priority 2007, dated 2012).

How the values were obtained:
[1] = background statement
[2] = system: FXR; conditions: in vivo; recent studies
[3] = target: T1, farnesoid X receptor (FXR) (Homo sapiens, UniProt Q96RI1); conditions: background statement
T1 sequence (Q96RI1 1-486): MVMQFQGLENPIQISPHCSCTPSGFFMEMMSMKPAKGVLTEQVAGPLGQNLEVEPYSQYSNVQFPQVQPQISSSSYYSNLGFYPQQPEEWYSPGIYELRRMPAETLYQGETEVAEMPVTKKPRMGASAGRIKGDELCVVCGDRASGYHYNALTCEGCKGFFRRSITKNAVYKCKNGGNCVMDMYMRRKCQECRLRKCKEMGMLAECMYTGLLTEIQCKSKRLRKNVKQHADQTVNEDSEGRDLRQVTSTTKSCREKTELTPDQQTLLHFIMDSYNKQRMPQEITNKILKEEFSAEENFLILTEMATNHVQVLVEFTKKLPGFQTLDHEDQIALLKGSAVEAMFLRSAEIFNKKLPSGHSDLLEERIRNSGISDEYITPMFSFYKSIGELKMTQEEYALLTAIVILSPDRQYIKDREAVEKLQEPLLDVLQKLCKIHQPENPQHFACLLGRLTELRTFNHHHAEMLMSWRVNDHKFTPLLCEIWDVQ

Compound	pharmacokinetic properties (in words) [1]	HDL-cholesterol [2]	plasma triglycerides [2]	FXR activation (in words) [3]
CC[C@H]1[C@@H](O)[C@@H]2[C@H](CC[C@]3(C)[C@@H]([C@H](C)CCC(=O)O)CC[C@@H]23)[C@@]2(C)CC[C@@H](O)C[C@@H]12 [Compound 6-ECDCA, 3α,7α-Dihydroxy-6α-ethyl-5β-cholan-24-oic acid]	improved pharmacokinetic properties relative to GW4064	–	–	–
CC(C)c1onc(-c2c(Cl)cccc2Cl)c1COc1ccc(/C=C/c2cccc(C(=O)O)c2)c(Cl)c1 [GW4064]	very poor pharmacokinetic properties	increases HDL-cholesterol	reduces plasma triglycerides	–
C[C@H](CCC(=O)O)[C@H]1CC[C@H]2[C@@H]3[C@H](O)C[C@@H]4C[C@H](O)CC[C@]4(C)[C@H]3C[C@H](O)[C@]12C [cholic acid]	–	–	–	activate FXR
